Read-outs that look alike come from different tables or passages of the source.
Assays:
normal nude mice [1] = assay: Effect of MSC on in vivo toxicity of irinotecan in normal nude mice (Example 1, FIG. 1); settings: for protection provided by MSC: MSC 0.2 mg/mouse/day ×42 p.o.
Method: The data are combined from at least three independent experiments with five (5) animals per experiment.
To illustrate this embodiment, nude mice were administered 42 single, daily oral doses of 0.2 mg/mouse of MSC.

normal rats = assay: Effect of MSC on toxicity of irinotecan in normal rats (Example 2, FIG. 2); format: in vivo
Text: The data are combined from 2-5 independent experiments with four (4) animals for each experiment.

normal mice = assay: Role of MSC dose in modulating irinotecan toxicity in normal mice (Example 6); format: in vivo
Text: In order to identify the minimum dose of MSC in the successful modulation of drug induced toxicities. […] Those skilled in the art will recognize that by conducting experiments as described herein, optimal doses of selenium for reducing toxicity of other chemotherapeutic agents and other anticancer modalities can be easily determined.

[2] = test system: squamous cell carcinoma of the head and neck (A253); settings: MSC 0.2 mg/mouse/d × 42 p.o. where combined
normal nude mice [3] = test system: normal nude mice
normal nude mice [4] = assay: Comparison of MSC and SLM as modulators of irinotecan toxicity in normal nude mice (Example 5, FIG. 4); format: in vivo
Text: Each experimental group had 10 mice each from two (2) independent experiments.

rats = assay: Renal function test after CDDP ± MSC treatment in rats (Example 8); format: in vivo
Method: Reversal of renal toxicity induced by Cisplatin (CDDP). The dose limiting toxicity of therapeutic doses of cisplatin is kidney toxicity. Studies were performed to identify blood biological markers modified by CDDP and to evaluate the ability of MSC to reverse the process. Four groups of six animals each were used. The first group was untreated rats (control), the second group was given MSC at 0.75 mg/rat/day for 20 days and samples collected 2 hours after MSC administration on day 20. The third group was administered CDDP alone at 6 mg/kg by a single
i.v. injection and samples were collected on day 6. The fourth group was adminstered MSC (0.75 mg/rat/day for 20 days) with CDDP (6 mg/kg). CDDP was given 14 days after MSC administration and […] was given for 6 more days after CDDP administration. Samples were collected on day 6 after CDDP administration. Blood samples were collected at postmortem by cardiac puncture. Serum was obtained from the blood samples and urea nitrogen and creatinine concentrations were determined by standard methods using commercially kits (Ortho Clinical Diagnostics).

normal nude mice [5] = assay: Effect of MSC on toxicity of irinotecan, taxol, FU and cisplatin in normal nude mice (Example 4, FIG. 3); format: in vivo; settings: toxic doses above MTD: irinotecan weekly, taxol 75 mg/kg, 5-FU 150 mg/kg, cisplatin 15 mg/kg once i.v.
Text: In all cases drug doses used were toxic and above the maximum tolerated dose.

[6] = irinotecan 100 mg/kg/wk ×4 i.v. alone
[7] = irinotecan 200 mg/kg/wk×4 i.v. alone
[8] = irinotecan 100 mg/kg/wk × 4 i.v.
[9] = day 22, 24 h after third irinotecan dose, irinotecan 200 mg/kg, MSC 0.2 mg/mouse
[10] = serum, Mean ± SD, CDDP 6 mg/kg single i.v., MSC 0.75 mg/rat daily for 20 days

CCc1c2c(nc3ccc(OC(=O)N4CCC(N5CCCCC5)CC4)cc13)-c1cc3c(c(=O)n1C2)COC(=O)[C@]3(O)CC [Irinotecan, irinotecan, reference compound]
animals survived treatment (normal nude mice [1]; [6]): 100% | weight loss (normal nude mice [1]; [6]): less than 20% | animals died by the end of treatment (normal nude mice [1]; [7]): 55% | maximum tolerated dose (MTD) (normal nude mice [1]; normal nude mice, irinotecan i.v. weekly ×4): 100 mg/kg/wk | animals died (normal rats; rats, irinotecan 200 mg/kg/day for 3 days i.v. (twice MTD), MSC 1 mg/kg/rat daily ×18 p.o.): all the animals | lethality (normal mice; irinotecan 200 mg/kg/wk×4 alone): 50% | Response Rate (%) CR [2, 8]: 20% | Response Rate (%) PR [2, 8]: 20% | Survivors (%) [2, 8]: 100% | Survivors (%) ([2]; irinotecan 200 mg/kg/wk × 4 i.v.): 45% | Survivors (%) ([2]; irinotecan 300 mg/kg/wk × 4 i.v.): 0% | HCT: haematocrit (normal nude mice [3]; [9]): 40.9 ± 4.2% | MCH: mean corpuscular hemoglobin (normal nude mice [3]; [9]): 17.5 ± 0.3 PICO Grams | MCHC: mean corpuscular hemoglobin concentration (normal nude mice [3]; [9]): 32.7 ± 0.6% | PLT: platelets (normal nude mice [3]; [9]): 836 ± 201 THSN/CU MM | RBC: red blood cell (normal nude mice [3]; [9]): 7.8 ± 1.0 Mill/CU MM | WBC: white blood cell (normal nude mice [3]; [9]): 3.5 ± 0.5 THSN/CU MM | WBC: white blood cell (normal nude mice [3]; day 22, 24 h after third irinotecan dose, irinotecan 200 mg/kg, MSC 0.2 mg/mouse, listed as irinotecan): 3.5 THSN/CU MM | reduction in white blood cells (normal nude mice [3]; irinotecan 200 mg/kg/wk, versus control (9.4 to 3.5)): over 60% | lethality (normal nude mice [4]; [7]): approximately 55% | survivors (normal nude mice [4]; [7]): 45%

C[Se]C[C@H](N)C(=O)O [MSC, methylselenocysteine]
effect of adding MSC on overall body weight loss (normal nude mice [1]; irinotecan 100 mg/kg/wk ×4 i.v. + MSC 0.2 mg/mouse/day ×42 p.o.): decrease in overall body weight loss | protection provided by MSC (normal nude mice [1]; irinotecan 200 mg/kg/wk×4 (twice MTD)): 100% | animals survived (normal nude mice [1]; irinotecan 200 mg/kg/wk×4 i.v. with MSC 0.2 mg/mouse/day ×42 p.o.): 100% | protection provided by MSC (normal nude mice [1]; irinotecan 300 mg/kg/wk×4 (three times MTD)): 80% | animals with severe diarrhea completely protected by MSC (normal rats; rats (FIG. 2), irinotecan 200 mg/kg dose): 50% | MSC dose sufficient for complete protection against lethal doses of irinotecan (normal mice; MSC 0.01 to 0.2 mg/mouse/day×42 with irinotecan 200 mg/kg/wk×4): ≤ 0.01 mg/mouse | lethality with the combination (normal mice; MSC as low as 0.01 mg/mouse with irinotecan 200 mg/kg/wk×4): no lethality | reversal of markers associated with kidney toxicity (BUN and creatinine) (rats; MSC 0.75 mg/rat/day with CDDP 6 mg/kg): highly effective | Blood Urea Nitrogen (rats; [10]): 12.7 ± 1.2 mg/dL | Creatinine (rats; [10]): 0.30 ± 0.00 mg/dL | prevention of neutropenia toxicity induced by irinotecan (normal nude mice [3]; MSC 0.2 mg/mouse/day with irinotecan 200 mg/kg/wk): effectively prevent neutropenia toxicity | HCT: haematocrit (normal nude mice [3]; [9]): 49.4 ± 2.4% | HGB: hemoglobin (normal nude mice [3]; [9]): 16.8 ± 0.7 Gram/DL | MCH: mean corpuscular hemoglobin (normal nude mice [3]; [9]): 18.4 ± 0.7 PICO Grams | MCHC: mean corpuscular hemoglobin concentration (normal nude mice [3]; [9]): 34.0 ± 0.7% | MCV: mean corpuscular volume (normal nude mice [3]; [9]): 54.0 ± 1.0 CU Microns | PLT: platelets (normal nude mice [3]; [9]): 756 ± 231 THSN/CU MM | RBC: red blood cell (normal nude mice [3]; [9]): 9.1 ± 0.5 Mill/CU MM | WBC: white blood cell (normal nude mice [3]; [9]): 10.3 ± 4.5 THSN/CU MM | protection against hematologic toxicity induced by irinotecan (normal nude mice [3]; irinotecan 200 mg/kg/wk×4): complete protection | effect of MSC on the survival rate of animals (normal nude mice [5]): protective effect | reduction of irinotecan toxicity by selenium compound (normal nude mice [4]; irinotecan 200 mg/kg/wk×4 i.v., selenium compound p.o. daily for 28 days, first dose 7 days before irinotecan): equally effective in reducing toxicity
